Results taken from PMC12476894, “Identification of α‑Azacyclic Acetamide-Based Inhibitors of P. falciparum Na^+ Pump (PfATP4) with Fast-Killing Asexual Blood-Stage Antimalarial Activity by Phenotypic Screening” (ACS Infectious Diseases, 2025).
Where two headings read alike, the source gives them in different places.

Assays:
[1] = system: P. falciparum NF54^luc parasites; test: 72 h SYBR Green growth inhibition, PfNF54^luc; format: cell-based; settings: Plasmodium falciparum
[2] = system: P. falciparum NF54^luc parasites; test: Luciferase reporter (LR) / BRRoK assay, PfNF54^luc; format: cell-based, Plasmodium falciparum; settings: for EC50: Plasmodium falciparum, NF54, Hec50, luciferase reporter
[3] = system: P. falciparum NF54^luc parasites; test: Luciferase reporter (LR) / BRRoK assay, PfNF54^luc; format: cell-based; settings: Plasmodium falciparum, NF54, Hec50, 72 h
[4] = system: Dd2-B2 (PfATP4^WT); test: Drug susceptibility assay for cross-resistance profiling (Fidock Lab), parental line; format: cell-based, Plasmodium falciparum; settings: for EC50: Plasmodium falciparum
[5] = system: Dd2^L350H (PfATP4^L350H); test: Drug susceptibility assay for cross-resistance profiling (Fidock Lab), L350H; format: cell-based, Plasmodium falciparum; settings: Table 3 data set
[6] = system: Dd2^P412L (PfATP4^P412L); test: Drug susceptibility assay for cross-resistance profiling (Fidock Lab), P412L; format: cell-based, Plasmodium falciparum; settings: Table 3 data set
[7] = system: Pf3D7 trophozoites, pHcyt (PfATP4 and other plasma membrane transporters); parameters: method as in previous study; settings: all conditions, versus solvent control 0.1% DMSO; ref previous study; cited from earlier work
[8] = system: P. falciparum 3D7 parasites (Pf3D7); test: 72 h SYBR Green growth inhibition, ABS P. falciparum 3D7 (Phillips Lab); format: cell-based, Plasmodium falciparum; settings: for EC50: 72 h SYBR Green assay, mean ± SEM (n); for reduction of activity relative to 2 / activity of analogs relative to parent 2 or 3 (in words): P. falciparum 3D7 and Dd2 parasites; for reduction of activity relative to 2: analogs of 2
[9] = system: P. falciparum Dd2 (PfDd2) parasites; test: 72 h SYBR Green growth inhibition, ABS P. falciparum Dd2 (Phillips Lab); format: cell-based, Plasmodium falciparum; settings: read-out: PfDd2 EC50
[10] = system: PfD10 attB; test: 72 h SYBR Green growth inhibition, PfD10 attB; format: cell-based; settings: Plasmodium falciparum; 72 h SYBR Green assay
[11] = system: Dd2 PfATP4^P412L mutant clones; test: 72 h SYBR Green growth inhibition, 2-selected Dd2 clones with PfATP4 P412L (Phillips Lab); format: cell-based, Plasmodium falciparum
Protocol: (§1) To confirm the MOA for the α-azacyclic acetamides against P. falciparum and to obtain potential information about whether or not they bind PfATP4 at an overlapping site with that of KAE609, we undertook resistance selections using PfDd2 parasites using the published cycling drug selection method. , α-Azacyclic acetamides 2 and 3 were chosen as representative examples of the pyrrole- and indole-based series, respectively. […] Additional cycles were performed at 20 × EC50, until resistant parasites were detected based on a fold change in EC50 compared to the parental clonal Dd2 line (Table S3). Resistant parasites were detected in the 2-selections in all 4 flasks after 4 pulses and for 3-selections in 3 flasks after 5 pulses. Clonal lines were generated from each flask, and one clone per flask was selected for WGS and EC50 determination (Tables S4 and S5). WGS analysis identified two single point mutations in PfATP4 that were not present in the original clonal Dd2 parasite line (Tables and S4). P412L was found in three of four flasks containing 2-selected resistance clones, and F917L was identified in all three flasks containing 3-selected clones and in the fourth flask containing 2-selected clones (Table S4). PfATP4 mutations identified by the WGS analysis in parasite lines were verified by PCR of the pfatp4 gene, followed by Sanger sequencing (Figures S5, S6 and Table S6). An additional protein coding gene (ribosomal protein S8e) was mutated in the 2-selections. However, this mutation was identified in only one of four sequenced clones and is therefore unlikely to be related to resistance to 2 (Figure S7). All three resistant clones derived from the 3-selections harbored an identical mutation in a gene (pfcpu) encoding a conserved protein of unknown function, which was absent in the parental line (Figure S8).
(§2) ABS P. falciparum 3D7, Dd2 or PfNF54^luc parasites (BEI resources) were cultured in RPMI 1640 medium (Millipore Sigma), supplemented with 25 mM HEPES, 0.5% Albumax-I (Thermo Scientific), 23 mM sodium bicarbonate, 92 μM hypoxanthine, and 10 μg/mL gentamicin sulfate at 37 °C, 5% CO2, using deidentified O^+ red blood cells (BioIVT) as previously described. − Growth inhibition assays were conducted in 96 well plate format using the SYBR Green or luciferase reporter assay depending on the strain with modifications as described , (see Supporting Information for a detailed description). Details for the luciferase reporter assay are described below under the BRRoK assay section.
(§3) EC50 and CC50 values were determined by nonlinear regression performed in GraphPad Prism Version 10. Unless otherwise specified, data were fitted to the log(inhibitor) vs response–variable slope with four parameters equation. […] For mutant cell lines and compound combinations where bottom plateau of zero growth was not reached, the bottom of the curve was defined at 0% based on background values obtained for parental Dd2 from the same study.
(§4) Resistant Dd2 parasites were selected using a high-pressure intermittent selection protocol using a previously described method. Selections were set up using 4 flasks per compound starting with approximately 3 × 10^9 parasites per flask (80 mL per flask, 4% hematocrit, 3% parasitemia at the beginning of each pulse, mostly ring-stage parasites via previous sorbitol synchronization. Pulse 1 and 2 (48 h) were conducted at 10xEC50, and subsequent pulses were conducted at 20xEC50. Parasites cleared within 48 h under these conditions. 3-Selections used a total of 4 pulses, while 2-selections required 5 pulses before resistant parasites emerged (Table S3). Culture media was replenished daily for a week after each pulse, then every 2 days with weekly replenishment of blood. Cultures were monitored by microscopy until recrudescence. Clonal parasites were obtained from each flask by limiting dilution and maintained in drug free RPMI-1640 media prior to being analyzed for EC50 shifts. […]

[12] = system: Dd2 PfATP4^F917L mutant clones; test: 72 h SYBR Green growth inhibition, 2- or 3-selected Dd2 clones with PfATP4 F917L (Phillips Lab); format: cell-based, Plasmodium falciparum
Protocol: as §1, §2, §3, §4

[13] = system: Pf3D7 trophozoite-stage parasites, cytosolic pH (pHcyt); cell-based assay for ATP4 inhibition; test: P. falciparum cytosolic dose response pH assay (BCECF, with concanamycin A)
[14] = 72 h SYBR Green assay, read-out: PfNF54^luc EC50
[15] = Plasmodium falciparum, DD2, 15-selected line
[16] = Plasmodium falciparum, DD2, 72 h
[17] = 72 h SYBR Green assay, mean ± SEM (n)

Compound `C[C@@H]1CC[C@H]2[C@@H](C)C(=O)O[C@@H]3O[C@@]4(C)CC[C@@H]1[C@]32OO4` [ART, artemisinin, reference compound] has an EC50 [1, 14] of 10 nM, an EC50 ([1]; 72 h SYBR Green, as listed in supplementary methods, read-out: EC50 values used for BRRoK concentration range (72h SYBR Green assay vs PfNF54luc)) of 9.7 nM and an EC50 ([2]; 6 h) of 80 nM. The “6 h EC50 relative to 72 h SYBR Green and LR EC50” value ([2]; higher at 6 h) was 10–20 fold and the EC50 [3] was 4 nM.

With `C[C@H]1[C@@H](O)O[C@@H]2O[C@@]3(C)CC[C@H]4[C@H](C)CC[C@@H]1[C@@]24OO3` [DHA, dihydroartemisinin, reference compound] the EC50 ([4]; DD2, 72 h, read-out: EC50, Dd2-B2) was 2 ± 0.09 nM, the EC50 [5, 15] was 2.4 ± 0.23 nM and the “EC50 fold-change vs Dd2-B2, Dd2^L350H” value [5] was 1.2 fold. The EC50 [6, 15] was 2.7 ± 0.15 nM, the “EC50 fold-change vs Dd2-B2, Dd2^P412L” value [6] was 1.4 fold and the “pH fingerprint traces (in words)” value [7] was “overlapped with those of the solvent control”.

Compound `Cc1cc(Nc2ccc(S(F)(F)(F)(F)F)cc2)n2nc(C(C)(F)F)nc2n1` [DSM265, reference compound] has an EC50 ([8]; Plasmodium falciparum, 3D7) of 6.6 ± 0.36 nM, an EC50 [9, 16] of 8.6 ± 0.36 nM and an EC50 [1, 14] of 8.6 ± 0.3 nM. The “BRRoK assay, luciferase activity after 6 h treatment (kill rate, in words)” value ([2]; 6 h, 47x to 0.04x EC50) was “did not reduce parasite levels in the 6 h treatment window”, the EC50 ([2]; 6 h) was over 240 nM and the EC50 [10] was 12 nM. The EC50 ([11]; Plasmodium falciparum, DD2, read-out: EC50, 2-selected flask #3 clone F5) was 8.5 ± 1.4 nM, the “Fold EC50 change compared to WT Dd2, 2-selected flask #3 clone F5” value ([11]; {}) was 0.99 fold and the EC50 ([12]; Plasmodium falciparum, DD2, read-out: EC50, 3-selected flask #3 clone D8) was 7.3 ± 0.13 nM. The “Fold EC50 change compared to WT Dd2, 3-selected flask #3 clone D8” value ([12]; {}) was 0.85 fold, the EC50 [3] was 6.8 ± 0.69 nM and the “effect on parasite cytosolic pH (pHcyt) in presence of CMA (in words)” value ([13]; Pf3D7, CMA 50 nM) was “no impact on pH”. For the same compound, the EC50 ([13]; Plasmodium falciparum, read-out: Pf3D7 pH EC50) was over 400 nM.

For `N#Cc1cc(NC(=O)[C@H]2c3ccccc3C(=O)N(CC(F)(F)F)[C@@H]2c2cccnc2)ccc1F` [SJ733], the EC50 ([4]; DD2, read-out: EC50, Dd2-B2) was 130 nM and the “Fold change, Dd2-B2” value ([4]; parent, Table S8) was 1 fold.

For `O=C1C(O)=C([C@H]2CC[C@H](c3ccc(Cl)cc3)CC2)C(=O)c2ccccc21` [atovaquone], the “pH fingerprint traces (in words)” value [7] is given as “overlapped with those of the solvent control”.

For `CCN(CC)CCCC(C)Nc1ccnc2cc(Cl)ccc12` (stereo not shown) [chloroquine], the “pH fingerprint traces (in words)” value [7] is given as “overlapped with those of the solvent control”.

For `Cc1ccc(NC(=O)Cn2cccc2-c2nc(-c3ccccc3)cs2)nc1` [compound 5, N-(5-methylpyridin-2-yl)-2-[2-(4-phenyl-1,3-thiazol-2-yl)-1H-pyrrol-1-yl]acetamide], the EC50 [8] was 10000 ± 30 nM, the “reduction of activity relative to 2” value [8] was 10–20 fold and the EC50 [9, 17] was 9600 ± 440 nM.

With `Cc1cccc(NC(=O)Cn2cccc2-c2nc(-c3ccccc3)cs2)n1` [compound 6, N-(6-methylpyridin-2-yl)-2-[2-(4-phenyl-1,3-thiazol-2-yl)-1H-pyrrol-1-yl]acetamide] the EC50 [8] was 15000 ± 870 nM, the “reduction of activity relative to 2” value [8] was 10–20 fold and the EC50 [9, 17] was 12000 ± 1100 nM.

In the case of `Cc1ccnc(NC(=O)Cn2cccc2-c2nc(-c3ccc(Cl)cc3)cs2)c1` [compound 7, 2-(2-(4-(4-chlorophenyl)-1,3-thiazol-2-yl)-1H-pyrrol-1-yl}-N-(4-methylpyridin-2-yl)acetamide], the EC50 [8] is reported as 15000 ± 2400 nM, the “reduction of activity relative to 2” value [8] is reported as 10–20 fold and the EC50 [9, 17] is reported as 14000 ± 580 nM.

For `Cc1cccnc1NC(=O)Cn1cccc1-c1nc(-c2ccc(Cl)cc2)cs1` [compound 8, 2-(2-(4-(4-chlorophenyl)-1,3-thiazol-2-yl)-1H-pyrrol-1-yl)-N-(3-methylpyridin-2-yl)acetamide], the EC50 [8] was over 30000 nM, the “activity of analogs relative to parent 2 or 3 (in words)” value [8] was “complete loss of activity” and the EC50 [9, 17] was over 30000 nM.

With `Cc1cccc(NC(=O)Cn2cccc2-c2nc(-c3ccccc3)cs2)c1` [compound 9, N-(3-methylphenyl)-2-[2-(4-phenyl-1,3-thiazol-2-yl)-1H-pyrrol-1-yl]acetamide] the “reduction of activity relative to 2” value [8] was 2 fold, the EC50 ([8]; Plasmodium falciparum, 3D7) was 2800 ± 170 nM and the EC50 [9, 16] was 1700 ± 38 nM.

For `O=C(Cn1cccc1-c1nc(-c2ccccc2)cs1)Nc1cccc(Cl)c1` [compound 10, N-(3-chlorophenyl)-2-[2-(4-phenyl-1,3-thiazol-2-yl)-1H-pyrrol-1-yl]acetamide], the EC50 [8] was 1600 ± 330 nM, the “activity of analogs relative to parent 2 or 3 (in words)” value [8] was “activity was restored” and the EC50 [9, 17] was 980 ± 82 nM.

For `O=C(Cn1cccc1-c1nc(-c2ccc(Cl)cc2)cs1)N1CCc2ccccc21` [compound 11, 2-(2-(4-(4-chlorophenyl)-1,3-thiazol-2-yl)-1H-pyrrol-1-yl)-1-(2,3-dihydro-1H-indol-1-yl)ethan-1-one], the EC50 [8] was over 30000 nM, the “activity of analogs relative to parent 2 or 3 (in words)” value [8] was “complete loss of activity” and the EC50 [9, 17] was over 30000 nM.

With `CC(=O)c1cn(C(C)C(=O)NCCn2nc(C)c(Cl)c2C)c2ccccc12` (stereo not shown) [compound 12, 2-(3-acetyl-1H-indol-1-yl)-N-[2-(4-chloro-3,5-dimethyl-1H-pyrazol-1-yl)ethyl]propenamide] the EC50 [8] was over 30000 nM, the “activity of analogs relative to parent 2 or 3 (in words)” value [8] was “loss of activity” and the EC50 [9, 17] was over 30000 nM.

For `O=C(Cn1ccc2ccccc21)NCCn1cccn1` [compound 13, 2-(1H-indol-1-yl)-N-[2-(1H-pyrazol-1-yl)ethyl]acetamide], the EC50 [8] was over 30000 nM, the “activity of analogs relative to parent 2 or 3 (in words)” value [8] was “loss of activity” and the EC50 [9, 17] was over 30000 nM.

For `Cc1cc(N)n(CC(=O)NCCn2c(C)cc3ccccc32)n1` [compound 14, 2-(5-amino-3-methyl-1H-pyrazol-1-yl)-N-[2-(2-methyl-1H-indol-1-yl)ethyl]acetamide], the EC50 [8] was over 30000 nM, the “activity of analogs relative to parent 2 or 3 (in words)” value [8] was “loss of activity” and the EC50 [9, 17] was over 30000 nM.
